Test results taken from US10392368B2, “Pyrazolo and triazolo bicyclic compounds as JAK kinase inhibitors” (THERAVANCE BIOPHARMA R&D IP, LLC, priority 2017, dated 2019).

Key:
Tyk2 = molecular target: T1, Tyk2 (Homo sapiens, UniProt P29597); assay: Biochemical Tyk2 kinase assay (LanthaScreen); conditions: for Ki: read-out: Tyk 2 (pKi) (converted)
T1 construct: GST; purchased Life Technologies
Protocol: (§1) A panel of four LanthaScreen JAK biochemical assays (JAK1, 2, 3 and Tyk2) were carried in a common kinase reaction buffer (50 mM HEPES, pH 7.5, 0.01% Brij-35, 10 mM MgCl2, and 1 mM EGTA). Recombinant GST-tagged JAK enzymes and a GFP-tagged STAT1 peptide substrate were obtained from Life Technologies.
(§2) Serially or discretely diluted compounds were pre-incubated with each of the four JAK enzymes and the substrate in white 384-well microplates (Corning) at ambient temperature for 1 h. ATP was subsequently added to initiate the kinase reactions in 10 μL total volume, with 1% DMSO. […] Kinase reactions were allowed to proceed for 1 hour at ambient temperature before a 10 μL preparation of EDTA (10 mM final concentration) and Tb-anti-pSTAT1 (pTyr701) antibody (Life Technologies, 2 nM final concentration) in TR-FRET dilution buffer (Life Technologies) was added. The plates were allowed to incubate at ambient temperature for 1 h before being read on the EnVision reader (Perkin Elmer). Emission ratio signals (520 nm/495 nm) were recorded and utilized to calculate the percent inhibition values based on DMSO and background controls.
(§3) For dose-response analysis, percent inhibition data were plotted vs. compound concentrations, and IC50 values were determined from a 4-parameter robust fit model with the Prism software (GraphPad Software). Results were expressed as pIC50 (negative logarithm of IC50) and subsequently converted to pKi (negative logarithm of dissociation constant, Ki) using the Cheng-Prusoff equation.

[1] = system: IL-2 stimulated pSTAT5 in Tall-1 T cells; assay: Cellular JAK3 potency assay: inhibition of IL-2 stimulated pSTAT5 in Tall-1 T cells; type: cell-based, human; conditions: for IC50: Homo sapiens, TALL-1, IL-2 stimulated pSTAT5 in Tall-1 T cells, read-out: Tall-1 (pIC50) (converted); for Tall-1 (pIC50): IL-2 stimulated pSTAT5 in Tall-1 T cells
Outline: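 In human Tall-1 T cells, IL-2 (300 ng/ml final, 30 min) drives STAT5 phosphorylation after a 1 h compound pretreatment. Lysates are assayed for pSTAT5 by AlphaLisa, and IC50 derived from signal versus concentration is expressed as pIC50.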

JAK2 = molecular target: T2, JAK2 (Homo sapiens, UniProt O60674); assay: Biochemical JAK2 kinase assay (LanthaScreen); conditions: for Ki: read-out: JAK 2 (pKi) (converted)
T2 construct: GST; purchased Life Technologies
Protocol: as §1
as §2, with “Elmer).” for “Elmer). Emission ratio signals (520 nm/495 nm) were recorded and utilized to calculate the percent inhibition values based on DMSO and background controls.”
as §3

JAK1 = molecular target: T3, JAK1 (Homo sapiens, UniProt P23458); assay: Biochemical JAK1 kinase assay (LanthaScreen); conditions: for Ki: read-out: JAK 1 (pKi) (converted)
T3 construct: GST; purchased Life Technologies
Outline: (§4)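 Compounds were preincubated with the GST-tagged kinase and GFP-labelled STAT1 peptide for one hour before ATP initiated a one-hour reaction at ambient temperature. Phosphorylation was quantified by TR-FRET with a Tb-labelled pTyr701 antibody. Ki values were derived from IC50 using Cheng-Prusoff.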

JAK3 = molecular target: T4, JAK3 (Homo sapiens, UniProt P52333); assay: Biochemical JAK3 kinase assay (LanthaScreen); design: GST; purchased Life Technologies; conditions: for Ki: read-out: JAK 3 (pKi) (converted); for JAK3 (pKi)-JAK1 (pKi): selectivity: difference of pKi JAK3 and pKi JAK1
T4 sequence (P52333 1-1124): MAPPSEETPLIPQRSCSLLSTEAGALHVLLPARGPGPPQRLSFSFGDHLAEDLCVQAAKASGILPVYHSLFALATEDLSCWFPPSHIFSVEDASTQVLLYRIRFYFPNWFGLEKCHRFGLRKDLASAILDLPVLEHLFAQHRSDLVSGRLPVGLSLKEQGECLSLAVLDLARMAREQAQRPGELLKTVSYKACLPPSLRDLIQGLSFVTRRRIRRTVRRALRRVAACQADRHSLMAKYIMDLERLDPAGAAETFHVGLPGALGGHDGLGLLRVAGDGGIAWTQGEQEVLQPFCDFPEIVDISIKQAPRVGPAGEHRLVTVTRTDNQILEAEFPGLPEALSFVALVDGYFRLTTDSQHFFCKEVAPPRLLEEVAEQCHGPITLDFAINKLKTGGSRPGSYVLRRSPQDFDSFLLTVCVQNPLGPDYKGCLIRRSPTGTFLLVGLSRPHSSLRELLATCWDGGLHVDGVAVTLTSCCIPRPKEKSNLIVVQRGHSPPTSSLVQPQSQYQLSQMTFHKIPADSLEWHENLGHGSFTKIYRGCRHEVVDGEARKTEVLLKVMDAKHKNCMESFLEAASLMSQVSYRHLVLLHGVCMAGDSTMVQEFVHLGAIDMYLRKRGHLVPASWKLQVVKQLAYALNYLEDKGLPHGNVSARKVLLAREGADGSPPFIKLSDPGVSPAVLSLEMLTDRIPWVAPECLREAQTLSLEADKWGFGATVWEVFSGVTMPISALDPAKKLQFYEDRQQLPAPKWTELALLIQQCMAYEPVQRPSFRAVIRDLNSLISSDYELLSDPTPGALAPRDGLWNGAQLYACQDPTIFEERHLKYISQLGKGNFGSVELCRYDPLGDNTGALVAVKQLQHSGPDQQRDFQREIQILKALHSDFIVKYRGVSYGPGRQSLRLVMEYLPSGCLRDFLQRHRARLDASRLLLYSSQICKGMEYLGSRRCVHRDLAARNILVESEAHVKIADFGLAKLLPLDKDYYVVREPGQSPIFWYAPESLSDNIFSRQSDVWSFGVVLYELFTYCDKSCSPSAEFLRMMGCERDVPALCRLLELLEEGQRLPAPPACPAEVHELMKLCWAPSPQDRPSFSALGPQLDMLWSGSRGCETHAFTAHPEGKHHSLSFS
Outline: as §4

T2 sequence (O60674 whole entry): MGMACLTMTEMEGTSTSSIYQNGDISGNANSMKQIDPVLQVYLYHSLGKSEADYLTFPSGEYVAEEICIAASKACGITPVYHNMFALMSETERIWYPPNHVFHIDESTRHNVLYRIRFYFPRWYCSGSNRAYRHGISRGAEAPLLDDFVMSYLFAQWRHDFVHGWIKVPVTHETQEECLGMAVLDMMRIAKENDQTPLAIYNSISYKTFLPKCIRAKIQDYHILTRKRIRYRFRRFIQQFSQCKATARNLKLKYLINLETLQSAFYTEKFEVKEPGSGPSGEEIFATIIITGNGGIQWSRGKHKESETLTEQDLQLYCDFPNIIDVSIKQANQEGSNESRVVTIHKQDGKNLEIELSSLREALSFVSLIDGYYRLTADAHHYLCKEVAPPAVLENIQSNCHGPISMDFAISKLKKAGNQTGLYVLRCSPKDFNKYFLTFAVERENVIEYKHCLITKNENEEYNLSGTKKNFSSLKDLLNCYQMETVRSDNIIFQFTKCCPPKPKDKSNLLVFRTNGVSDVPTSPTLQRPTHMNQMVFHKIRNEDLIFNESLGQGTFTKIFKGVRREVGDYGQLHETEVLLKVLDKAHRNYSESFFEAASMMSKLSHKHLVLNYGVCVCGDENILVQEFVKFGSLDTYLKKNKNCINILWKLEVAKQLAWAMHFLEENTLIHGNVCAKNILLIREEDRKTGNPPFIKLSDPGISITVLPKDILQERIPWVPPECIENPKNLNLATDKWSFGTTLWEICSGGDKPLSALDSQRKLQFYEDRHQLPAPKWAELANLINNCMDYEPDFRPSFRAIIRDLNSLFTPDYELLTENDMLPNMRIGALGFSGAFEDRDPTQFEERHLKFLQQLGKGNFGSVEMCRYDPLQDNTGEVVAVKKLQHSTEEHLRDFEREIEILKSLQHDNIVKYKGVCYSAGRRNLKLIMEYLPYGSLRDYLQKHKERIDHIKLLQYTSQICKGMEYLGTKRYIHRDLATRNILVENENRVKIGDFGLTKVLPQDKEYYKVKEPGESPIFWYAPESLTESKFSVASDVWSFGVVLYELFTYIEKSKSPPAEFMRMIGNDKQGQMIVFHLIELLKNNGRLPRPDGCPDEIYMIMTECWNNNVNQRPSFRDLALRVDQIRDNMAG
T1 sequence (P29597 whole entry): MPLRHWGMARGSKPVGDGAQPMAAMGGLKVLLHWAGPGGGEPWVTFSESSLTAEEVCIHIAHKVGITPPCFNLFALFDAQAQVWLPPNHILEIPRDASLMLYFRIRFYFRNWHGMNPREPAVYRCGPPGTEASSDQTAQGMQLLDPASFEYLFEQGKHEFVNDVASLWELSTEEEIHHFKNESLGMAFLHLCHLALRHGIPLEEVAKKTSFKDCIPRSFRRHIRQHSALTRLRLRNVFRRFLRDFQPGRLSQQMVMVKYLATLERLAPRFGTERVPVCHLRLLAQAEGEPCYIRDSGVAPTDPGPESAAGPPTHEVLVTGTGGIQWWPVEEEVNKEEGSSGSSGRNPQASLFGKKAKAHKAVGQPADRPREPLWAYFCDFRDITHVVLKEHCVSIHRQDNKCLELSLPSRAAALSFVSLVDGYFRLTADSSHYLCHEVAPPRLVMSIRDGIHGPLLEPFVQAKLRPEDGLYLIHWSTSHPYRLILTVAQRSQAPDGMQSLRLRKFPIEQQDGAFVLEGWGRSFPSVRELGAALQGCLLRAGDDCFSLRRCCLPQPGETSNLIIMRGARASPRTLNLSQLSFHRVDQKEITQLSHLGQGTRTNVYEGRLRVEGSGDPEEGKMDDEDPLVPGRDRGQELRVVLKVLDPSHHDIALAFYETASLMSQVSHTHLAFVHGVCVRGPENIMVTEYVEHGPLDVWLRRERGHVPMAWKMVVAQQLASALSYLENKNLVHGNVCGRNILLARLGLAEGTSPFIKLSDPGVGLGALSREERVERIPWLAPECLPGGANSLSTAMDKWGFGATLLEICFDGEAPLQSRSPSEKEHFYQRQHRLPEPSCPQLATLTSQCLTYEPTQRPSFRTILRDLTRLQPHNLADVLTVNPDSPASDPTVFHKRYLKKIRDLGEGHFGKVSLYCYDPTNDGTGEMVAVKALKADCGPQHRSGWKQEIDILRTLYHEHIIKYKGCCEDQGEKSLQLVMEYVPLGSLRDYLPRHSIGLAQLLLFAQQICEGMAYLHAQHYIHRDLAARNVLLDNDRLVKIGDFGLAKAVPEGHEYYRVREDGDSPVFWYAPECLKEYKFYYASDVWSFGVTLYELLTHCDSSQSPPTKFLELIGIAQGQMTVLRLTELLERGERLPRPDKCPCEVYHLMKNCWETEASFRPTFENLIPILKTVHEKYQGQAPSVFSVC
T3 sequence (P23458 whole entry): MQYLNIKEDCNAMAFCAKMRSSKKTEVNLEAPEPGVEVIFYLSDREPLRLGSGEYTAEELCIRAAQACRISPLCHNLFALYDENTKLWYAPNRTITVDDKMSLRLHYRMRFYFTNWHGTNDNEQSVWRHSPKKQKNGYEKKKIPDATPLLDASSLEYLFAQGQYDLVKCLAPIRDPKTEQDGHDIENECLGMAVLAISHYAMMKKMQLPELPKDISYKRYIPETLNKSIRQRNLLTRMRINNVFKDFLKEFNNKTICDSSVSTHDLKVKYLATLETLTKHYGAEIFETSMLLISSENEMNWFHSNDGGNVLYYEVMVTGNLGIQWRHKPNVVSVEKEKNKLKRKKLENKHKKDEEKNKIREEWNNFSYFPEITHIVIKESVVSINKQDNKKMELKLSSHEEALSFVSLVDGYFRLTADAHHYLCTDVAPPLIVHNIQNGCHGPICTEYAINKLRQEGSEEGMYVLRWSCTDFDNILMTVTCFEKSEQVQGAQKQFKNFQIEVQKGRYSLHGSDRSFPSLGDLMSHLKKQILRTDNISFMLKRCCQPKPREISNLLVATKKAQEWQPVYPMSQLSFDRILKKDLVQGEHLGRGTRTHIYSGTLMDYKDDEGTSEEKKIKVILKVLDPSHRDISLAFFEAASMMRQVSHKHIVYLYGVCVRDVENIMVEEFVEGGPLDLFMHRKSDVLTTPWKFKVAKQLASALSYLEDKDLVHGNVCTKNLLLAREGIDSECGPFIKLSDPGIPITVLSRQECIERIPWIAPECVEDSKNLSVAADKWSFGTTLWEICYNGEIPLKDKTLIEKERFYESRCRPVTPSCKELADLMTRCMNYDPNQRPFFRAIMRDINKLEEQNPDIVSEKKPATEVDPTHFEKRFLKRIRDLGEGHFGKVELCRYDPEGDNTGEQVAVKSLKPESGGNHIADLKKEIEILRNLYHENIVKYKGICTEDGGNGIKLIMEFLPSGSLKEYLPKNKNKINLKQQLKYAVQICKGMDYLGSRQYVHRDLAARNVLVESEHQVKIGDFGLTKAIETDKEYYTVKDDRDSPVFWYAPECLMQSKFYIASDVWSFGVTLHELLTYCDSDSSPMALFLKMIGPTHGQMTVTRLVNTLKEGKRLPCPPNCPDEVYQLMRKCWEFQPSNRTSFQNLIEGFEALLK

SMILES | Ki (Tyk2) [nM] | IC50 [1] [nM] | Ki (JAK2) [nM] | Ki (JAK1) [nM] | Ki (JAK3) [nM] | JAK3 (pKi)-JAK1 (pKi) (JAK3) | Tyk 2 (pKi) (Tyk2) | Tall-1 (pIC50) [1] | JAK 2 (pKi) (JAK2) | JAK 1 (pKi) (JAK1) | JAK 3 (pKi) (JAK3)
C=CC(=O)N1CC[C@H](Oc2cc(-c3ccc(O)c(F)c3)cc3[nH]ncc23)C1 [Compound 1-5] | > 100 | < 31.6 | 10 to 100 | > 100 | < 0.1 | A (a value of 3 or above) | – | – | – | – | –
C=CC(=O)N1CC[C@H](Oc2nc(-c3ccc(O)cc3)cc3[nH]ncc23)C1 [Compound 1-8] | > 100 | 31.6 to 200 | > 100 | > 100 | 0.1 to 1 | A (a value of 3 or above) | – | – | – | – | –
C=CC(=O)N1C[C@@H](Oc2cc(-c3ccc(O)cc3)cc3[nH]ncc23)C[C@H]1C [Compound 1-11] | > 100 | < 31.6 | > 100 | > 100 | < 0.1 | A (a value of 3 or above) | – | – | – | – | –
C=CC(=O)N1CC[C@H](Oc2cc(-c3ccc(O)c(F)c3Cl)cc3[nH]ncc23)C1 [Compound 1-15] | > 100 | 31.6 to 200 | > 100 | > 100 | < 0.1 | A (a value of 3 or above) | – | – | – | – | –
C=CC(=O)N1CC[C@H](Oc2cc(-c3cc(F)c(O)cc3C)cc3[nH]ncc23)C1 [Compound 1-16] | > 100 | 31.6 to 200 | 10 to 100 | > 100 | 0.1 to 1 | B (a value of 2.3 to 3) | – | – | – | – | –
C=CC(=O)N1CC[C@H](Oc2cc(-c3ccc(O)cc3F)cc3[nH]ncc23)C1 [Compound 1-17] | > 100 | < 31.6 | 10 to 100 | > 100 | 0.1 to 1 | A (a value of 3 or above) | – | – | – | – | –
C=CC(=O)N1CC[C@H](Oc2cc(-c3c(F)cc(O)cc3F)cc3[nH]ncc23)C1 [Compound 1-18] | > 100 | < 31.6 | 10 to 100 | 10 to 100 | 0.1 to 1 | B (a value of 2.3 to 3) | – | – | – | – | –
C=CC(=O)N1CC[C@H](Oc2cc(-c3cc(F)c(O)cc3F)cc3[nH]ncc23)C1 [Compound 1-19] | – | – | – | – | – | A (a value of 3 or above) | E (a pKi value of 7 or below (Ki of 100 nM or above)) | B (a pIC50 value between 6.7 (included) and 7.5 (IC50 between 200 nM and 32 nM)) | D (a pKi value between 7 and 8 (Ki between 100 nM and 10 nM)) | E (a pKi value of 7 or below (Ki of 100 nM or above)) | B (a pKi value between 9 and 10 (Ki between 1 nM and 0.1 nM))
C=CC(=O)N1CC[C@H](Oc2cc(-c3ccc(O)cc3)cc3[nH]nc(C)c23)C1 [Compound 1-20] | > 100 | < 31.6 | 10 to 100 | > 100 | 0.1 to 1 | B (a value of 2.3 to 3) | – | – | – | – | –
C=CC(=O)N1CC[C@H](Oc2cc(-c3ccc(O)cc3)cc3[nH]nc(NC)c23)C1 [Compound 1-21] | > 100 | 31.6 to 200 | > 100 | > 100 | 0.1 to 1 | A (a value of 3 or above) | – | – | – | – | –
C=CC(=O)N1CC[C@H](Oc2cc(-c3ccc(O)cc3)cc3[nH]nc(COC)c23)C1 [Compound 1-22] | > 100 | 31.6 to 200 | 10 to 100 | > 100 | < 0.1 | A (a value of 3 or above) | – | – | – | – | –
C=CC(=O)N1CC(Oc2nc(-c3ccc(O)cc3)nc3[nH]ncc23)CC1C (stereo not drawn) [Compound 1-24] | – | – | – | – | – | A (a value of 3 or above) | E (a pKi value of 7 or below (Ki of 100 nM or above)) | C (a pIC50 value between 6 and 6.7 (IC50 between 1 μM and 200 nM)) | E (a pKi value of 7 or below (Ki of 100 nM or above)) | E (a pKi value of 7 or below (Ki of 100 nM or above)) | B (a pKi value between 9 and 10 (Ki between 1 nM and 0.1 nM))
C=CC(=O)N1C[C@@H](Oc2cc(-c3ccc(O)cc3)nc3[nH]ncc23)C[C@H]1C [Compound 1-26] | > 100 | 31.6 to 200 | > 100 | > 100 | < 0.1 | A (a value of 3 or above) | – | – | – | – | –
C=CC(=O)N1CC[C@H](Oc2nc(-c3ccc(O)c(F)c3)cc3[nH]ncc23)C1 [Compound 1-27] | > 100 | 31.6 to 200 | 10 to 100 | > 100 | < 0.1 | A (a value of 3 or above) | – | – | – | – | –
Cc1cc(O)c(F)cc1-c1cc(O[C@H]2CCN(C(=O)/C=C/CN(C)C)C2)c2cn[nH]c2c1 [Compound 1-29] | > 100 | 31.6 to 200 | 10 to 100 | 10 to 100 | 0.1 to 1 | B (a value of 2.3 to 3) | – | – | – | – | –
C=CC(=O)N1CC[C@H](Oc2cc(-c3ccc(O)cc3)nc3[nH]nc(C)c23)C1 [Compound 1-31] | > 100 | 31.6 to 200 | > 100 | > 100 | < 0.1 | A (a value of 3 or above) | – | – | – | – | –
C=CC(=O)N1CC[C@H](Oc2cc(-c3ccc(O)c(F)c3)nc3[nH]nc(C)c23)C1 [Compound 1-33] | > 100 | 31.6 to 200 | > 100 | > 100 | 0.1 to 1 | A (a value of 3 or above) | – | – | – | – | –
C=CC(=O)N1CC[C@H](Oc2nc(-c3ccc(O)cc3)cc3[nH]nc(C)c23)C1 [Compound 1-34] | > 100 | < 31.6 | 10 to 100 | > 100 | 0.1 to 1 | A (a value of 3 or above) | – | – | – | – | –
C=CC(=O)N1CC[C@H](Oc2nc(-c3ccc(O)c(F)c3)cc3[nH]nc(C)c23)C1 [Compound 1-36] | > 100 | < 31.6 | 10 to 100 | 10 to 100 | 0.1 to 1 | B (a value of 2.3 to 3) | – | – | – | – | –
